What follows are compounds tested against T1, BTK (Homo sapiens, UniProt Q06187) (assay: BTK degradation activity test in Mino cells (Westernblot or Elisa)). Conditions: 24-72 h incubation.
T1 construct: endogenous in cells; host or cells: Mino cells
Type: cell-based
Method: The Mino cell line cells are 0.5˜1 million/well in 6-well plates. The compounds are diluted to different concentrations, added to the plate, and after 24-72 h of incubation, the cells are collected. After the cells were lysed, the total protein concentration in each well was determined with a BCA kit. The amount of BTK is determined using the Westernblot or Elisa method.

T1 sequence (Q06187 whole entry): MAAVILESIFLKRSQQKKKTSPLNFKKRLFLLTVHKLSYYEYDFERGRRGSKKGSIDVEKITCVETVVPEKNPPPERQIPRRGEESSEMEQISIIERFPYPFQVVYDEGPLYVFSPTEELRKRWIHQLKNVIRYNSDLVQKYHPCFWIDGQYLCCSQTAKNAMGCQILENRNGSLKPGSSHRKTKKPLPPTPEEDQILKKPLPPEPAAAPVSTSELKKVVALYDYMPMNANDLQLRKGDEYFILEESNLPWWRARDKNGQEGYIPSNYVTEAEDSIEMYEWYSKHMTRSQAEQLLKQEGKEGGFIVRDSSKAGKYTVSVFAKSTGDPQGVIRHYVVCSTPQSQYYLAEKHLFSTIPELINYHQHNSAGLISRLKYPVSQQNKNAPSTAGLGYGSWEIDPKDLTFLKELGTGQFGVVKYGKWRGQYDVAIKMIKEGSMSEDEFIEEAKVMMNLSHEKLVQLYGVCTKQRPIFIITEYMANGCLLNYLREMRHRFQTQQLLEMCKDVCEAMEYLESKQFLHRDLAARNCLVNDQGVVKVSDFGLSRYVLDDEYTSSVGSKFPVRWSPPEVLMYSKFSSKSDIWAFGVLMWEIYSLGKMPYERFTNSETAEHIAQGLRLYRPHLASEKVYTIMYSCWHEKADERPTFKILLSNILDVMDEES

DC50 [µM] | SMILES
< 0.01 | CC(=O)N[C@@H]1CCCN(c2nnc(C(N)=O)c(Nc3ccc(N4CCN(CC5CCN(c6ccc(NC7CCC(=O)NC7=O)nc6)CC5)CC4)c(F)c3)n2)C1 (stereo partly drawn) [Compound 096, 3-((R)-3-acetamidopiperidin-1-yl)-5-((4-(4-((1-(6-((2,6-dioxopiperidin-3-yl)amino)pyridin-3-yl)piperidin-4-yl)methyl)piperazin-1-yl)-3-fluorophenyl)amino)-1,2,4-triazine-6-carboxamide]
< 0.01 | NC(=O)c1nnc(N2CCOCC2)nc1Nc1ccc(N2CCN(CC3CCN(c4ccc(N5CCC(=O)NC5=O)cc4)CC3)CC2)c(F)c1 [Compound 099, 5-((4-(4-((1-(4-(2,4-dioxotetrahydropyrimidin-1(2H)-yl)phenyl)piperidin-4-yl)methyl)piperazin-1-yl)-3-fluorophenyl)amino)-3-morpholino-1,2,4-triazine-6-carboxamide]
< 0.01 | NC(=O)c1cnc(N2CCCCC2)nc1Nc1ccc(N2CCN(CC3CCN(c4ccc5c(c4)C(=O)N(C4CCC(=O)NC4=O)C5=O)C3)CC2)c(F)c1 (stereo not drawn) [Compound 034, 4-((4-(4-((1-(2-(2,6-dioxopiperidin-3-yl)-1,3-dioxoisoindolin-5-yl)pyrrolidin-3-yl)methyl)piperazin-1-yl)-3-fluorophenyl)amino)-2-(piperidin-1-yl) pyrimidine-5-carboxamide]
< 0.01 | NC(=O)c1nnc(N2CCC[C@@H](O)C2)nc1Nc1ccc(C2CCN(CC3CCN(c4ccc5c(c4)C(=O)N(C4CCC(=O)NC4=O)C5=O)C3)CC2)c(F)c1 (stereo partly drawn) [Compound 067, 5-((4-(1-((1-(2-(2,6-dioxopiperidin-3-yl)-1,3-dioxoisoindolin-5-yl)pyrrolidin-3-yl)methyl)piperidin-4-yl)-3-fluorophenyl)amino)-3-((R)-3-hydroxypiperidin-1-yl)-1,2,4-triazine-6-carboxamide]
< 0.01 | NC(=O)c1nnc(N2CCCCC2)nc1Nc1ccc(N2CCN(CC3CCN(c4ccc(N5CCC(=O)NC5=O)cc4)CC3)CC2)c(F)c1 [Compound 080, 5-((4-(4-((1-(4-(2,4-dioxotetrahydropyrimidin-1(2H)-yl)phenyl)piperidin-4-yl)methyl)piperazin-1-yl)-3-fluorophenyl)amino)-3-(piperidin-1-yl)-1,2,4-triazine-6-carboxamide]
< 0.01 | CC(OC(=O)C(C)(C)C)N1C(=O)CCN(c2ccc(N3CCN(CC4CCN(c5ccc(Nc6nc(N7CCCCC7)nnc6C(N)=O)cc5F)CC4)CC3)cc2)C1=O (stereo not drawn) [Compound 072, 1-(3-(4-(4-((1-(4-((6-carbamoyl-3-(piperidin-1-yl)-1,2,4-triazin-5-yl)amino)-2-fluorophenyl)piperidin-4-yl)methyl)piperazin-1-yl)phenyl)-2,6-dioxotetrahydropyrimidin-1(2H)-yl) ethyl pivalate]
< 0.01 | CN1CCN(c2nnc(C(N)=O)c(Nc3ccc(C4CCN(CC5CCN(c6ccc7c(c6)C(=O)N(C6CCC(=O)NC6=O)C7=O)C5)CC4)cc3)n2)CC1 (stereo not drawn) [Compound 018, 5-((4-(1-((1-(2-(2,6-dioxopiperidin-3-yl)-1,3-dioxoisoindolin-5-yl)pyrrolidin-3-yl)methyl)piperidin-4-yl)phenyl)amino)-3-(4-methylpiperazin-1-yl)-1,2,4-triazine-6-carboxamide]
< 0.01 | CC(C)(C)C(=O)OCN1C(=O)CCN(c2ccc(N3CCN(CC4CCN(c5ccc(Nc6nc(N7CCCCC7)nnc6C(N)=O)cc5F)CC4)CC3)cc2)C1=O [Compound 066, (3-(4-(4-((1-(4-((6-carbamoyl-3-(piperidin-1-yl)-1,2,4-triazin-5-yl)amino)-2-fluorophenyl)piperidin-4-yl)methyl)piperazin-1-yl)phenyl)-2,6-dioxotetrahydropyrimidin-1(2H)-yl) methyl pivalate]
< 0.01 | NC(=O)c1nnc(N2CCCCC2)nc1Nc1ccc(N2CCC(CN3CCN(c4ccc(-c5ccc(=O)[nH]n5)cc4C(F)(F)F)CC3)CC2)c(F)c1 [Compound 089, 5-((3-fluoro-4-(4-((4-(4-(6-oxo-1,6-dihydropyridazin-3-yl)-2-(trifluoromethyl)phenyl)piperazin-1-yl)methyl)piperidin-1-yl)phenyl)amino)-3-(piperidin-1-yl)-1,2,4-triazine-6-carboxamide]

Further lines, the compound ahead of its results:

SMILES | DC50 [µM]
NC(=O)c1nnc(Oc2cccc(F)c2F)nc1Nc1ccc(C2CCN(CC3CCN(c4ccc5c(c4)C(=O)N(C4CCC(=O)NC4=O)C5=O)C3)CC2)cc1 (stereo not drawn) [Compound 028, 3-(2,3-difluorophenoxy)-5-((4-(1-((1-(2-(2,6-dioxopiperidin-3-yl)-1,3-dioxoisoindolin-5-yl)pyrrolidin-3-yl)methyl)piperidin-4-yl)phenyl)amino)-1,2,4-triazine-6-carboxamide] | < 0.01
NC(=O)c1nc(F)c(N2CCCCC2)nc1Nc1ccc(C2CCN(CC3CCN(c4ccc5c(c4)C(=O)N(C4CCC(=O)NC4=O)C5=O)C3)CC2)cc1 (stereo not drawn) [Compound 042, 3-((4-(1-((1-(2-(2,6-dioxopiperidin-3-yl)-1,3-dioxoisoindolin-5-yl)pyrrolidin-3-yl)methyl)piperidin-4-yl)phenyl)amino)-6-fluoro-5-(piperidin-1-yl) pyrazine-2-carboxamide] | < 0.01
NC(=O)c1cnc(N2CCCCC2)cc1Nc1ccc(N2CCN(CC3CCN(c4ccc5c(c4)C(=O)N(C4CCC(=O)NC4=O)C5=O)C3)CC2)c(F)c1 (stereo not drawn) [Compound 037, 4-((4-(4-((1-(2-(2,6-dioxopiperidin-3-yl)-1,3-dioxoisoindolin-5-yl)pyrrolidin-3-yl)methyl)piperazin-1-yl)-3-fluorophenyl)amino)-6-(piperidin-1-yl) nicotinamide] | < 0.01
CC(C)(C)C(=O)OCN1C(=O)CCC(N2C(=O)c3ccc(N4CCC(CN5CCC(c6ccc(Nc7nc(N8CCCCC8)nnc7C(N)=O)cc6)CC5)C4)cc3C2=O)C1=O (stereo not drawn) [Compound 062, (3-(5-(3-((4-(4-((6-carbamoyl-3-(piperidin-1-yl)-1,2,4-triazin-5-yl)amino)phenyl)piperidin-1-yl)methyl)pyrrolidin-1-yl)-1,3-dioxoisoindolin-2-yl)-2,6-dioxopiperidin-1-yl) methyl pivalate] | < 0.01
CC(C)(C)C(=O)OCN1C(=O)CCC(N2C(=O)c3ccc(N4CCC(CN5CCN(c6ccc(Nc7nc(N8CCCCC8)nnc7C(N)=O)cc6F)CC5)C4)cc3C2=O)C1=O (stereo not drawn) [Compound 064, (3-(5-(3-((4-(4-((6-carbamoyl-3-(piperidin-1-yl)-1,2,4-triazin-5-yl)amino)-2-fluorophenyl)piperazin-1-yl)methyl)pyrrolidin-1-yl)-1,3-dioxoisoindolin-2-yl)-2,6-dioxopiperidin-1-yl) methyl pivalate] | < 0.01
NC(=O)c1nnc(N2CCCCC2)nc1Nc1ccc(C2CCN(C(=O)C3CCN(c4ccc5c(c4)C(=O)N(C4CCC(=O)NC4=O)C5=O)CC3)CC2)cc1 (stereo not drawn) [Compound 057, 5-((4-(1-(1-(2-(2,6-dioxopiperidin-3-yl)-1,3-dioxoisoindolin-5-yl)piperidine-4-carbonyl)piperidin-4-yl)phenyl)amino)-3-(piperidin-1-yl)-1,2,4-triazine-6-carboxamide] | < 0.01
NC(=O)c1nnc(N2CCCCC2)nc1Nc1ccc(N2CCN(C(=O)C3CCN(c4ccc5c(c4)C(=O)N(C4CCC(=O)NC4=O)C5=O)C3)CC2)cc1 (stereo not drawn) [Compound 056, 5-((4-(4-(1-(2-(2,6-dioxopiperidin-3-yl)-1,3-dioxoisoindolin-5-yl)pyrrolidine-3-carbonyl)piperazin-1-yl)phenyl)amino)-3-(piperidin-1-yl)-1,2,4-triazine-6-carboxamide] | < 0.01
NC(=O)c1nnc(-c2cccnc2)nc1Nc1ccc(C2CCN(CC3CCN(c4ccc5c(c4)C(=O)N(C4CCC(=O)NC4=O)C5=O)C3)CC2)cc1 (stereo not drawn) [Compound 026, 5-((4-(1-((1-(2-(2,6-dioxopiperidin-3-yl)-1,3-dioxoisoindolin-5-yl)pyrrolidin-3-yl)methyl)piperidin-4-yl)phenyl)amino)-3-(pyridin-3-yl)-1,2,4-triazine-6-carboxamide] | < 0.01
N#Cc1cccc(Nc2nnc(C(N)=O)c(Nc3ccc(C4CCN(CC5CCN(c6ccc7c(c6)C(=O)N(C6CCC(=O)NC6=O)C7=O)C5)CC4)cc3)n2)c1 (stereo not drawn) [Compound 020, 3-((3-cyanophenyl)amino)-5-((4-(1-((1-(2-(2,6-dioxopiperidin-3-yl)-1,3-dioxoisoindolin-5-yl)pyrrolidin-3-yl)methyl)piperidin-4-yl)phenyl)amino)-1,2,4-triazine-6-carboxamide] | < 0.01
NC(=O)c1nnc(N2CCC[C@@H](O)C2)cc1Nc1ccc(C2CCN(CC3CCN(c4ccc5c(c4)C(=O)N(C4CCC(=O)NC4=O)C5=O)C3)CC2)cc1 (stereo partly drawn) [Compound 041, 4-((4-(1-((1-(2-(2,6-dioxopiperidin-3-yl)-1,3-dioxoisoindolin-5-yl)pyrrolidin-3-yl)methyl)piperidin-4-yl)phenyl)amino)-6-((R)-3-hydroxypiperidin-1-yl) pyridazine-3-carboxamide] | < 0.01
CC[C@H](Nc1nnc(C(N)=O)c(Nc2ccc(C3CCN(CC4CCN(c5ccc6c(c5)C(=O)N(C5CCC(=O)NC5=O)C6=O)C4)CC3)cc2)n1)C(N)=O (stereo partly drawn) [Compound 017, 3-(((S)-1-amino-1-oxobutan-2-yl)amino)-5-((4-(1-((1-(2-(2,6-dioxopiperidin-3-yl)-1,3-dioxoisoindolin-5-yl)pyrrolidin-3-yl)methyl)piperidin-4-yl)phenyl)amino)-1,2,4-triazine-6-carboxamide] | < 0.01
NC(=O)c1nnc(N[C@H]2CCCC[C@H]2N)nc1Nc1ccc(C2CCN(CC3CCN(c4ccc5c(c4)C(=O)N(C4CCC(=O)NC4=O)C5=O)C3)CC2)cc1 (stereo partly drawn) [Compound 030, 3-(((1S,2R)-2-aminocyclohexyl)amino)-5-((4-(1-((1-(2-(2,6-dioxopiperidin-3-yl)-1,3-dioxoisoindolin-5-yl)pyrrolidin-3-yl)methyl)piperidin-4-yl)phenyl)amino)-1,2,4-triazine-6-carboxamide] | < 0.01

From patent publication US20260167620A1, “MULTIFUNCTIONAL COMPOUND CAPABLE OF DEGRADING BTK KINASE, AND COMPOSITION AND USE” (HANGZHOU HEALZEN THERAPEUTICS CO., LTD., priority 2021, published 2026)
